# According to PMC9856672, “SGC-CAMKK2-1: A Chemical Probe for CAMKK2” (Cells, 2023):
# Legend:
# FLT3(ITD) = experiment: KINOMEscan at 1 μM, FLT3(ITD); assay type: binding, human; conditions: 1000 nM
# Description: (§1) Supplement cells-12-00287-s001.zip/File S2. KinomeScan data for the CAMKK2 probe and negative control.xlsx, sheet "SGC-CAMKK2-1N" | column: Percent Control
# ERK8 = biological target: T1, ERK8 (Homo sapiens, UniProt Q8TD08); experiment: KINOMEscan at 1 μM, ERK8; assay type: binding; conditions: 1000 nM, read-out: Percent Control
# T1 construct: purchased Eurofins DiscoverX KINOMEscan
# Description: as §1
# RIOK3 = biological target: T2, RIOK3 (Homo sapiens, UniProt O14730); experiment: KINOMEscan at 1 μM, RIOK3; assay type: binding; conditions: 1000 nM, read-out: Percent Control
# T2 construct: purchased Eurofins DiscoverX KINOMEscan
# Description: as §1
# PLK4 = biological target: T3, PLK4 (Homo sapiens, UniProt O00444); experiment: KINOMEscan binding assay at 1 μM, PLK4; conditions: Compound Concentration 1000 nM; read-out: Percent Control
# T3 construct: purchased Eurofins DiscoverX KINOMEscan
# Description: as §1
# ULK3 = biological target: T4, ULK3 (Homo sapiens, UniProt Q6PHR2); experiment: KINOMEscan at 1 μM, ULK3; assay type: binding; conditions: 1000 nM, read-out: Percent Control
# T4 construct: purchased Eurofins DiscoverX KINOMEscan
# Description: as §1
# EPHA1 = biological target: T5, EPHA1 (Homo sapiens, UniProt P21709); experiment: KINOMEscan at 1 μM, EPHA1; assay type: binding; conditions: 1000 nM, read-out: Percent Control
# T5 construct: purchased Eurofins DiscoverX KINOMEscan
# Description: as §1
# PRKCE = biological target: T6, PRKCE (Homo sapiens, UniProt Q02156); experiment: KINOMEscan binding assay at 1 μM, PRKCE; conditions: Compound Concentration 1000 nM; read-out: Percent Control
# T6 construct: purchased Eurofins DiscoverX KINOMEscan
# Description: as §1
# FLT3(D835H) = biological target: T7, FLT3(D835H) (Homo sapiens, UniProt P36888, D835H); experiment: KINOMEscan at 1 μM, FLT3(D835H); assay type: binding; conditions: 1000 nM, read-out: Percent Control
# T7 construct: purchased Eurofins DiscoverX KINOMEscan
# Description: as §1
# PLK3 = biological target: T8, PLK3 (Homo sapiens, UniProt Q9H4B4); experiment: KINOMEscan at 1 μM, PLK3; assay type: binding; conditions: 1000 nM, read-out: Percent Control
# T8 construct: purchased Eurofins DiscoverX KINOMEscan
# Description: as §1
# DYRK1A = biological target: T9, DYRK1A (Homo sapiens, UniProt Q13627); experiment: KINOMEscan at 1 μM, DYRK1A; assay type: binding; conditions: 1000 nM, read-out: Percent Control
# T9 construct: purchased Eurofins DiscoverX KINOMEscan
# Description: as §1
# BRAF(V600E) = biological target: T10, BRAF(V600E) (Homo sapiens, UniProt P15056, V600E); experiment: KINOMEscan at 1 μM, BRAF(V600E); assay type: binding; conditions: 1000 nM, read-out: Percent Control
# T10 construct: purchased Eurofins DiscoverX KINOMEscan
# Description: as §1
# KIT(A829P) = biological target: T11, KIT(A829P) (Homo sapiens, UniProt P10721, A829P); experiment: KINOMEscan at 1 μM, KIT(A829P); assay type: binding; conditions: 1000 nM, read-out: Percent Control
# T11 construct: purchased Eurofins DiscoverX KINOMEscan
# Description: as §1
# ALK = biological target: T12, ALK (Homo sapiens, UniProt Q9UM73); experiment: KINOMEscan at 1 μM, ALK; assay type: binding; conditions: 1000 nM, read-out: Percent Control
# T12 construct: purchased Eurofins DiscoverX KINOMEscan
# Description: as §1
# MEK4 = biological target: T13, MEK4 (Homo sapiens, UniProt P45985); experiment: KINOMEscan at 1 μM, MEK4; assay type: binding; conditions: 1000 nM, read-out: Percent Control
# T13 construct: purchased Eurofins DiscoverX KINOMEscan
# Description: as §1
# PKAC-beta = biological target: T14, PKAC-beta (Homo sapiens, UniProt P22694); experiment: KINOMEscan binding assay at 1 μM, PKAC-beta; conditions: Compound Concentration 1000 nM; read-out: Percent Control
# T14 construct: purchased Eurofins DiscoverX KINOMEscan
# Description: as §1
# PIK3CA(C420R) = biological target: T15, PIK3CA(C420R) (Homo sapiens, UniProt P42336, C420R); experiment: KINOMEscan at 1 μM, PIK3CA(C420R); assay type: binding; conditions: 1000 nM, read-out: Percent Control
# T15 construct: purchased Eurofins DiscoverX KINOMEscan
# Description: as §1
# BRSK2 = biological target: T16, BRSK2 (Homo sapiens, UniProt Q8IWQ3); experiment: KINOMEscan at 1 μM, BRSK2; assay type: binding; conditions: 1000 nM, read-out: Percent Control
# T16 construct: purchased Eurofins DiscoverX KINOMEscan
# Description: as §1
# MLCK = biological target: T17, MLCK (Homo sapiens, UniProt Q32MK0); experiment: KINOMEscan 1 μM, MLCK; assay type: binding; conditions: 1000 nM; Entrez MYLK3; read-out: Percent Control
# T17 construct: purchased Eurofins DiscoverX KINOMEscan
# Description: (§2) Supplement cells-12-00287-s001.zip/File S2. KinomeScan data for the CAMKK2 probe and negative control.xlsx, sheet "SGC-CAMKK2-1" | column: Percent Control
# WNK4 = biological target: T18, WNK4 (Homo sapiens, UniProt Q96J92); experiment: DiscoverX KINOMEscan binding assay at 1 μM, WNK4; conditions: Compound Concentration 1000 nM, read-out: Percent Control
# T18 construct: purchased Eurofins DiscoverX KINOMEscan
# Description: as §2
# [1] = biological target: T19, RPS6KA4(Kin.Dom.2-C-terminal) (Homo sapiens, UniProt O75676); experiment: DiscoverX KINOMEscan binding assay at 1 μM, RPS6KA4(Kin.Dom.2-C-terminal); conditions: Compound Concentration 1000 nM, read-out: Percent Control
# T19 construct: RPS6KA4(Kin.Dom.2-C-terminal); purchased Eurofins DiscoverX KINOMEscan
# Description: as §2
# TIE2 = biological target: T20, TIE2 (Homo sapiens, UniProt Q02763); experiment: KINOMEscan 1 μM, TIE2; assay type: binding; conditions: 1000 nM; Entrez TEK; read-out: Percent Control
# T20 construct: purchased Eurofins DiscoverX KINOMEscan
# Description: as §2
# EPHB3 = biological target: T21, EPHB3 (Homo sapiens, UniProt P54753); experiment: KINOMEscan 1 μM, EPHB3; assay type: binding; conditions: 1000 nM; Entrez EPHB3; read-out: Percent Control
# T21 construct: purchased Eurofins DiscoverX KINOMEscan
# Description: as §2
# CAMK2A = biological target: T22, CAMK2A (Homo sapiens, UniProt Q9UQM7); experiment: KINOMEscan 1 μM, CAMK2A; assay type: binding; conditions: 1000 nM; Entrez CAMK2A; read-out: Percent Control
# T22 construct: purchased Eurofins DiscoverX KINOMEscan
# Description: as §2
# NEK2 = biological target: T23, NEK2 (Homo sapiens, UniProt P51955); experiment: KINOMEscan 1 μM, NEK2; assay type: binding; conditions: 1000 nM; Entrez NEK2; read-out: Percent Control
# T23 construct: purchased Eurofins DiscoverX KINOMEscan
# Description: as §2
# MLK3 = biological target: T24, MLK3 (Homo sapiens, UniProt Q16584); experiment: KINOMEscan 1 μM, MLK3; assay type: binding; conditions: 1000 nM; Entrez MAP3K11; read-out: Percent Control
# T24 construct: purchased Eurofins DiscoverX KINOMEscan
# Description: as §2
# [2] = biological target: T25, ABL1(Q252H)-phosphorylated (Homo sapiens, UniProt P00519, Q252H); experiment: KINOMEscan 1 μM, ABL1(Q252H)-phosphorylated; assay type: binding; conditions: 1000 nM; Entrez ABL1; read-out: Percent Control
# T25 construct: purchased Eurofins DiscoverX KINOMEscan
# Description: as §2
# CSNK1G3 = biological target: T26, CSNK1G3 (Homo sapiens, UniProt Q9Y6M4); experiment: KINOMEscan 1 μM, CSNK1G3; assay type: binding; conditions: 1000 nM; Entrez CSNK1G3; read-out: Percent Control
# T26 construct: purchased Eurofins DiscoverX KINOMEscan
# Description: as §2
# CIT = biological target: T27, CIT (Homo sapiens, UniProt O14578); experiment: KINOMEscan 1 μM, CIT; assay type: binding; conditions: 1000 nM; Entrez CIT; read-out: Percent Control
# T27 construct: purchased Eurofins DiscoverX KINOMEscan
# Description: as §2
# FRK = biological target: T28, FRK (Homo sapiens, UniProt P42685); experiment: KINOMEscan 1 μM, FRK; assay type: binding; conditions: 1000 nM; Entrez FRK; read-out: Percent Control
# T28 construct: purchased Eurofins DiscoverX KINOMEscan
# Description: as §2
# MARK3 = biological target: T29, MARK3 (Homo sapiens, UniProt P27448); experiment: KINOMEscan 1 μM, MARK3; assay type: binding; conditions: 1000 nM; Entrez MARK3; read-out: Percent Control
# T29 construct: purchased Eurofins DiscoverX KINOMEscan
# Description: as §2
# p38-delta = biological target: T30, p38-delta (Homo sapiens, UniProt O15264); experiment: KINOMEscan 1 μM, p38-delta; assay type: binding; conditions: 1000 nM; Entrez MAPK13; read-out: Percent Control
# T30 construct: purchased Eurofins DiscoverX KINOMEscan
# Description: as §2
# PRKCD = biological target: T31, PRKCD (Homo sapiens, UniProt Q05655); experiment: DiscoverX KINOMEscan binding assay at 1 μM, PRKCD; conditions: Compound Concentration 1000 nM, read-out: Percent Control
# T31 construct: purchased Eurofins DiscoverX KINOMEscan
# Description: as §2
# PIK3CG = biological target: T32, PIK3CG (Homo sapiens, UniProt P48736); experiment: KINOMEscan 1 μM, PIK3CG; assay type: binding; conditions: 1000 nM; Entrez PIK3CG; read-out: Percent Control
# T32 construct: purchased Eurofins DiscoverX KINOMEscan
# Description: as §2
# FLT3 = biological target: T33, FLT3 (Homo sapiens, UniProt P36888); experiment: KINOMEscan 1 μM, FLT3; assay type: binding; conditions: 1000 nM; Entrez FLT3; read-out: Percent Control
# T33 construct: purchased Eurofins DiscoverX KINOMEscan
# Description: as §2
# T15 sequence (P42336 whole entry C420R): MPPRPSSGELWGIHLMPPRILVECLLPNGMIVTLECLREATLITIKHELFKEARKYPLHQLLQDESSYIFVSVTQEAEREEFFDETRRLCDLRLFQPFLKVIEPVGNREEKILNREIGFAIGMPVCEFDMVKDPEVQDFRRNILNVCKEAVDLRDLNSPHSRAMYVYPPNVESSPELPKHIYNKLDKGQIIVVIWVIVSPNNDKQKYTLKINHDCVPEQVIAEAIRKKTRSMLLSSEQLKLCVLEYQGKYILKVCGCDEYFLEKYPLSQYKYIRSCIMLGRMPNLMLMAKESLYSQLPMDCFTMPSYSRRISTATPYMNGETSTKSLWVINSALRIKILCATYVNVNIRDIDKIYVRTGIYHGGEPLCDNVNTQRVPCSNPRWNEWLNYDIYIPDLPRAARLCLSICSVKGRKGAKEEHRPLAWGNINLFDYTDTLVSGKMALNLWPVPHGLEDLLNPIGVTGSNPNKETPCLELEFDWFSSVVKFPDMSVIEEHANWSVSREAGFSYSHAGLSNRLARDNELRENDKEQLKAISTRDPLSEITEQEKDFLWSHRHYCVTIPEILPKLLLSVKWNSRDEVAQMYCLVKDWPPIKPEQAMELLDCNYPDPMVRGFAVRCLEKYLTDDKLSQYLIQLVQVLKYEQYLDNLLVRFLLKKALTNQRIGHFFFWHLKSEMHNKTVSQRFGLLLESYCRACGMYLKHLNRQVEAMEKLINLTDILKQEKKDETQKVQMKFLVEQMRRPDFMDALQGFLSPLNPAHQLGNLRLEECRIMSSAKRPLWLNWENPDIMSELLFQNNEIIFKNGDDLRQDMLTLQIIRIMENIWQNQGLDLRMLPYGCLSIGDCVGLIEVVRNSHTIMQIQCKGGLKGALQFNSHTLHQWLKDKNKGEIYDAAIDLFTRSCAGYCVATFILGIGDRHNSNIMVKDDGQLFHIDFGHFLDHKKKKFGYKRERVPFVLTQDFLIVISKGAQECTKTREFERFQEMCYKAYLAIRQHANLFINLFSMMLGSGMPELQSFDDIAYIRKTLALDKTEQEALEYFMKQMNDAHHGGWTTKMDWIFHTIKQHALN
# T8 sequence (Q9H4B4 whole entry): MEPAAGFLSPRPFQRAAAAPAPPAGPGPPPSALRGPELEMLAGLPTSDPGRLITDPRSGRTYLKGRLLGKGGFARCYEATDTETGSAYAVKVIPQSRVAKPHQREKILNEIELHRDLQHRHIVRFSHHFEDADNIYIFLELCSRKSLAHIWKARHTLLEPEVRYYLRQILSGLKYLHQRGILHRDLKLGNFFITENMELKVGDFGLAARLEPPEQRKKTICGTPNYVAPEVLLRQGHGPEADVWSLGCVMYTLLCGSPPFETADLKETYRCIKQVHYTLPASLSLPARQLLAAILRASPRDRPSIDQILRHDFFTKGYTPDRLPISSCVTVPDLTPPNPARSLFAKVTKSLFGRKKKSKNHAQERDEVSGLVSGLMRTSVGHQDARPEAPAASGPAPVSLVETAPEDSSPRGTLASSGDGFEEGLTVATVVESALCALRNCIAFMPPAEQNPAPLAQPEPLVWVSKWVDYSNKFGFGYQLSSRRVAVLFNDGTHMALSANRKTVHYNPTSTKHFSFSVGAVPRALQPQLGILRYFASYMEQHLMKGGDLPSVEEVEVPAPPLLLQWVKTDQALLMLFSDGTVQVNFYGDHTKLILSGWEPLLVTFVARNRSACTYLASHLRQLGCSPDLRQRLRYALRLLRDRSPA
# T21 sequence (P54753 34-998): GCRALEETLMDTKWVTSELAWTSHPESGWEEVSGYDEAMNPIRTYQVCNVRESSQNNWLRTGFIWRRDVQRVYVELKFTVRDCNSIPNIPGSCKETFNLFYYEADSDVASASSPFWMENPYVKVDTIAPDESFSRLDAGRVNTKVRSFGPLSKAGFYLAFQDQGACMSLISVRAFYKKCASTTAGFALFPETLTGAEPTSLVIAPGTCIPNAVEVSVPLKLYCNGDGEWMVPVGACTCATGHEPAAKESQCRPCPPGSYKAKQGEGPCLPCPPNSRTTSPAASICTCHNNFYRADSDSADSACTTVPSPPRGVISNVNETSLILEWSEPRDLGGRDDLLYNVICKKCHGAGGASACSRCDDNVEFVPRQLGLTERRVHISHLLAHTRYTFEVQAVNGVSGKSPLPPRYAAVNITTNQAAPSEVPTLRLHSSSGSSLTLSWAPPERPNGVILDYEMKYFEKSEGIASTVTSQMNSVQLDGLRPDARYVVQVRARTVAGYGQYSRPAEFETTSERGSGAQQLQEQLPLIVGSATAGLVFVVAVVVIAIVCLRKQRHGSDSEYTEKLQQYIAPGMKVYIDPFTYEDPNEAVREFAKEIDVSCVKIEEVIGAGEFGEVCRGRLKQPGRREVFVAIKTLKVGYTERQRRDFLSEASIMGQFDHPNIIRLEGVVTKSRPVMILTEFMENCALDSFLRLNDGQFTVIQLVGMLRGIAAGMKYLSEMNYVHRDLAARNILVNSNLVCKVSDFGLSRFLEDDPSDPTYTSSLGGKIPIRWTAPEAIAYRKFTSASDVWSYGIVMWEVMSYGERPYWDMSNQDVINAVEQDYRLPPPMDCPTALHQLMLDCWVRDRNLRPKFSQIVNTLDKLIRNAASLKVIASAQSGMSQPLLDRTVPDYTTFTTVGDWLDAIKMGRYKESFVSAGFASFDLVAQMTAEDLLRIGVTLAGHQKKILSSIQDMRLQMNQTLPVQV
# T3 sequence (O00444 whole entry): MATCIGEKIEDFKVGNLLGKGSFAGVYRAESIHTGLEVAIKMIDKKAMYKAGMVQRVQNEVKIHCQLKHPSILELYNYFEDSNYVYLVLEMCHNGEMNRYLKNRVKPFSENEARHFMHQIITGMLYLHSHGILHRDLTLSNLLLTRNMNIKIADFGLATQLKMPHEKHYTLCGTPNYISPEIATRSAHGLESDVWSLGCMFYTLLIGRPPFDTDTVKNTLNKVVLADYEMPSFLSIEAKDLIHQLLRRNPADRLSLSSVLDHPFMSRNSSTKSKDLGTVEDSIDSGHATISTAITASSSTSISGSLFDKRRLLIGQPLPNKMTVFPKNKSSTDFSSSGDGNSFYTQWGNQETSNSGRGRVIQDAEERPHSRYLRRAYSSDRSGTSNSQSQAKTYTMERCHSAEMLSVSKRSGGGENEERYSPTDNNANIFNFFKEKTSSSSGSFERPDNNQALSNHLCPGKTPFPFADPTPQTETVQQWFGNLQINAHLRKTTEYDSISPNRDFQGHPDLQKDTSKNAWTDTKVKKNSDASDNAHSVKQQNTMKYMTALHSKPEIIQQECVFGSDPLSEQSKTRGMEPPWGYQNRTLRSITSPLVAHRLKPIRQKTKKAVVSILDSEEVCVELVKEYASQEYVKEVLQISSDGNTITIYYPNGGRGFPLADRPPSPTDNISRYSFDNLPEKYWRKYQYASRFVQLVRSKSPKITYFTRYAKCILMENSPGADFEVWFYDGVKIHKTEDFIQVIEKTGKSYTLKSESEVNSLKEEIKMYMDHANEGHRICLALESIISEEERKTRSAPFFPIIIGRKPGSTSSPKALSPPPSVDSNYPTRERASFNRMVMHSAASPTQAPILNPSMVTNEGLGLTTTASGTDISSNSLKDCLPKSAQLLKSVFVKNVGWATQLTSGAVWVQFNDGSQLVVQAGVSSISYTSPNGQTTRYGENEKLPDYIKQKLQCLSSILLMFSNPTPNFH
# T31 sequence (Q05655 whole entry): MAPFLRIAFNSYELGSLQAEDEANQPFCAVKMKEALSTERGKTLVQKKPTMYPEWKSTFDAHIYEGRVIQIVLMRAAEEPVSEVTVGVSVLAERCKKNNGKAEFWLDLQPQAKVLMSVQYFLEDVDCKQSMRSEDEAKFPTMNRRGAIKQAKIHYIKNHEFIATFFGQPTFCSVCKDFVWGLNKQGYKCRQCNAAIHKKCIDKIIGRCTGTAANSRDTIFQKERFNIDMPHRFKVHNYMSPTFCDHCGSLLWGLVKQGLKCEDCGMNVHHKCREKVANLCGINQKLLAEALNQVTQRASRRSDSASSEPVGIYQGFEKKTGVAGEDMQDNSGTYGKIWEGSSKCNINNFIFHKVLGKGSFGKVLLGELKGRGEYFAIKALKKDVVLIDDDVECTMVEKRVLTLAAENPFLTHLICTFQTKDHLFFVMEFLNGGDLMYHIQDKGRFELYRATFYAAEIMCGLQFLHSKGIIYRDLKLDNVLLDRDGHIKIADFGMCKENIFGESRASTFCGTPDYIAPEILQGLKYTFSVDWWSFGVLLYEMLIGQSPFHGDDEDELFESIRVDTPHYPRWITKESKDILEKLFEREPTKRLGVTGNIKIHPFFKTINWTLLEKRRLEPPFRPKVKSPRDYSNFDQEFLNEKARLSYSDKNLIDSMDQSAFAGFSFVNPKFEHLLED
# T30 sequence (O15264 whole entry): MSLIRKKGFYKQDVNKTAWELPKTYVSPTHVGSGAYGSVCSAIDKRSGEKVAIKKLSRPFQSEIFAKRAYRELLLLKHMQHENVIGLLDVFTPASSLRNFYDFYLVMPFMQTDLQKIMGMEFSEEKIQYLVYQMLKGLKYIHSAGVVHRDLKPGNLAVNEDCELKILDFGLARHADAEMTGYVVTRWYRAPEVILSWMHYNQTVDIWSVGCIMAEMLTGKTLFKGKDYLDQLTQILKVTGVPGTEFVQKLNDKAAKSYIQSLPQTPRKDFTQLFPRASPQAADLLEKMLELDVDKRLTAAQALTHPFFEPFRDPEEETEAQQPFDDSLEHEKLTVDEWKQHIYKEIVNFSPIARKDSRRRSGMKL
compound,measurement,setting,value
O=C(O)c1ccc(-c2coc3ncc(-c4ccccc4)cc23)cc1Cl [SGC-CAMKK2-1N (UNC-YL-83)],Percent Control,FLT3(ITD),81
same,remaining binding at 1 µM,ERK8,86%
same,remaining binding at 1 µM,RIOK3,76%
same,remaining binding at 1 µM,PLK4,100%
same,remaining binding at 1 µM,ULK3,82%
same,remaining binding at 1 µM,EPHA1,61%
same,remaining binding at 1 µM,PRKCE,100%
same,remaining binding at 1 µM,FLT3(D835H),88%
same,remaining binding at 1 µM,PLK3,91%
same,remaining binding at 1 µM,DYRK1A,71%
same,remaining binding at 1 µM,BRAF(V600E),87%
same,remaining binding at 1 µM,KIT(A829P),86%
same,remaining binding at 1 µM,ALK,66%
same,remaining binding at 1 µM,MEK4,81%
same,remaining binding at 1 µM,PKAC-beta,100%
same,remaining binding at 1 µM,PIK3CA(C420R),0%
same,remaining binding at 1 µM,BRSK2,100%
Cc1cccc(-c2cnc3occ(-c4ccc(C(=O)O)c(C5CCCC5)c4)c3c2)c1 [SGC-CAMKK2-1 (YL-36)],remaining binding at 1 µM,MLCK,86%
same,remaining binding at 1 µM,WNK4,100%
same,remaining binding at 1 µM,[1],100%
same,remaining binding at 1 µM,TIE2,97%
same,remaining binding at 1 µM,EPHB3,96%
same,remaining binding at 1 µM,CAMK2A,95%
same,remaining binding at 1 µM,NEK2,100%
same,remaining binding at 1 µM,MLK3,89%
same,remaining binding at 1 µM,[2],96%
same,remaining binding at 1 µM,CSNK1G3,99%
same,remaining binding at 1 µM,CIT,100%
same,remaining binding at 1 µM,FRK,100%
same,remaining binding at 1 µM,MARK3,100%
same,remaining binding at 1 µM,p38-delta,69%
same,remaining binding at 1 µM,PRKCD,100%
same,remaining binding at 1 µM,PIK3CG,76%
same,remaining binding at 1 µM,FLT3,80%
